Laboratory results taken from patent US10214507B2, “Carbazole-containing amides, carbamates, and ureas as cryptochrome modulators” (Reset Therapeutics, Inc., priority 2014, dated 2019).
Like-named read-outs stand apart in the source and are kept apart here.

Key:
[1] = tested on: core clock gene mRNAs in mouse liver; assay: Core clock gene mRNAs in liver after a single dose at peak or nadir of Cry1 expression; format: in vivo; settings: single dose 50 mg/kg, liver 7.5 hours later
Protocol: For compounds that interact directly with the core clock mechanism, the time of dosing may be critical for maximizing their effects. […] The former (ZTO) is coincident with the peak of Cry1 and Bmal1 protein in mouse liver and the latter (ZT10) corresponds to the approximate nadir of Cry1 and Bmal1. Liver tissue was taken 7.5 hours later for each, and the samples were examined for core clock gene mRNAs by RT-qPCR.

[2] = tested on: db/db mouse model of type II diabetes; assay: Single dose at peak or nadir of clock gene expression, OGTT in db/db mice; format: in vivo
Text: Mice were split into two study arms, to be dosed at either the peak or nadir of Cry1 and Bmal1 gene expression. […] Mice dosed at ZT10 were fasted beginning at 8:30 am in the same manner.
Significance was accepted when p<0.05.

[3] = tested on: cortisone-induced insulin resistance in Sprague Dawley rats; assay: Cortisone induced insulin resistance in rats; format: in vivo, rat; settings: cortisone 30 mg/kg sc + 50 mg/kg po
Protocol: Animals were dosed with cortisone (30 mg/kg sc qd) in combination with test compounds for 6 days and then terminated 27 hours after the final dose of cortisone. A reference standard (Mifepristone) was also included. Cortisone 21-acetate (Sigma C-3130) was supplied by RenaSci and administered using a dose volume of 5 ml/kg via the subcutaneous route as a fine suspension in 1% methylcellulose. […] Mifepristone (Sigma M8046) was provided by RenaSci.
Glucose and insulin determinations were performed on plasma samples obtained from a tail vein bleed taken after a 12 h fast, approximately 27 h after the last cortisone dose. Animals were then terminated and a terminal (cardiac) blood sample taken from which plasma was prepared.
Thirty four male Sprague Dawley rats (weight range 200-250 g) were ordered from Charles River, Margate, Kent, UK. […] Subsequently, animals underwent a 3 day baseline period during which they were dosed once daily with vehicle at t=0 h (07:00). […] Body weight was recorded immediately before dosing began at 07:00 (t=0 h).
On Day 6 of dosing rats were fasted for 12 h beginning at 22:30 (timed to coincide with the Day 7 termination). […] At 10:30 on Day 7, 27 h after the final dose of cortisone, a blood sample (300 μl) was taken from the lateral tail vein into tubes containing EDTA (Sarstedt 16.444). The blood was centrifuged and resultant plasma aliquot stored at −75° C. The animals were euthanized by CO2 asphyxiation followed by cervical dislocation. Terminal blood (approximately 10 ml) was collected by cardiac puncture into tubes containing EDTA (Sarstedt 5 ml 32.332) and then centrifuged and plasma stored at −75° C. The tail vein plasma was analyzed for glucose (n=2) using a commercial clinical reagent (Thermoelectron Infinity glucose reagent (TR15421) and for insulin (n=1) using the Mercodia ultrasensitive rat insulin rat ELISA (10-1251-10).
Plasma glucose and insulin were analyzed by robust regression or general linear model with treatment as a factor and bleeding order and baseline body weight as covariates. A log transformation was used if appropriate. Appropriate multiple comparison tests (two-tailed) were used to determine significant differences from the vehicle group and from the Cortisone group. P<0.05 was considered to be statistically significant.

[4] = Pharmacokinetic analysis in ICR mice (plasma and liver, LC/MS/MS); format: in vivo, mouse; settings: 50 mg/kg P.O.; for Cmax / Tmax / half-life / MRT last: male, ICR, po; for Cmax: 50 mg/kg; for half-life: read-out: Elimination T1/2 (converted); for MRT last: read-out: MRT (0-last, hr)
Protocol: Male ICR mice (weighing 30-40 g, Charles River Laboratories) were used for the experiment with n=3 mice for each experimental group (27 mice total for the study). […] Blood and liver tissue were collected at the following time points after administration: 15, 30, 60, 90 minutes, 3, 6, 12 and 24 hours. A control group of animals (TO) was also sampled. Animals were euthanized with CO2 and the blood collected from the heart using cardiac puncture, transferred to an EDTA tube, and then centrifuged at 5400 rpm for 5 minutes at 4° C. The resultant plasma was frozen using dry ice and then stored at −80° C. until ready for assay. Liver tissue was removed from each animal, 0.5 g was collected in an eppendorff, frozen and submitted for pharmacokinetic measurement. […] Raw data was analyzed using WinNonLin for PK parameters (Cmax, Tmax, elimination t^1/2, MRT (mean residence time), AUC (area under the curve)−(0-last and % extrapolated).

Cmax ([4]; mouse, liver, mouse liver, read-out: Cmax): 7890 ng/mL | Cmax ([4]; mouse, liver, mouse, unbound, read-out: Cmax UB (liver)): 288 ng/mL | Cmax ([4]; mouse, plasma, mouse plasma, read-out: Cmax): 1150 ng/mL | Cmax ([4]; mouse, plasma, mouse, read-out: Cmax (plasma)): 1150 ng/mL | Cmax ([4]; mouse, plasma, mouse, unbound, read-out: Cmax UB (plasma)): 41.9 ng/mL | Tmax ([4]; mouse liver): 15 to 30 min | half-life ([4]; mouse liver): 204 min | MRT last ([4]; mouse liver): 4.74 h | Tmax ([4]; mouse plasma): 15 to 30 min | half-life ([4]; mouse plasma): 188 min | MRT last ([4]; mouse plasma): 5.3 h | % AUC extrapolated ([4]; mouse liver): 0.85% | AUC (total; ng · hr/mL) ([4]; mouse liver): 17961 ng·h/mL | % AUC extrapolated ([4]; mouse plasma): 1.74% | AUC (total; ng · hr/mL) ([4]; mouse plasma): 4236 ng·h/mL | Cmax (liver) ([4]; mouse): 7890 ng/mL | Total Liver AUC (0-last) ([4]; mouse): 17822 | Unbound Liver AUC (0-last) ([4]; mouse): 650.5 | Unbound Plasma AUC (0-last) ([4]; mouse): 151.5
Structure (SMILES): O=C1NCCN1CC(O)Cn1c2ccc(F)cc2c2cc(F)ccc21 (stereo not drawn) [Compound 72, 1-(3-(3,6-difluoro-9H-carbazol-9-yl)-2-hydroxypropyl)imidazolidin-2-one]
impact on clock mRNAs, dosing at peak (ZT0) vs nadir (ZT10) [1]: greater relative impact on the clock mRNAs at the peak compared to the nadir | effect on OGTT measurement, dosed at peak of Cry1 and Bmal1 expression ([2]; single dose 50 mg/kg PO at ZT0): apparent effect | effect on OGTT measurement, dosed at nadir ([2]; single dose 50 mg/kg PO at ZT10): no effect | glucose AUC calculated from the OGTT ([2]; single dose 50 mg/kg PO at peak (ZT0), mean+/-S.E.M.): 63842+/−4318 | reduction in glucose excursion (AUC) ([2]; single dose 50 mg/kg PO at peak (ZT0), vs vehicle): 14% | HOMA-IR ([3]; insulin resistant rats): 56.94+/−11.18 units | fasted plasma glucose ([3]; rats): 8.55 ± 0.3 mM | fasted plasma insulin ([3]; rats): 5.24 ± 1.1 ng/mL
